Assay results published in article PMC8567874, “Metronomic delivery of orally available pemetrexed-incorporated colloidal dispersions for boosting tumor-specific immunity” (Drug Delivery, 2021).

Test system: CT26.CL25 cells
Assay: Immunoblotting of CRT and HMGB-1
Type: cell-based
Details: CT26.CL25, 300 µM, 48 h, western blot
Method: CT26.CL25 cells (1 × 10^5 per well) cultured in 6-well plates were treated with 300 µM DL, 300 µM PMX or PMX/DL (equivalent 300 µM PMX) for 48 h. The cells were then lysed in RIPA buffer with protease and phosphatase inhibitors (GenDEPOT, Barker, TX, USA). Each sample was loaded with 20 µg of protein and fractionated using SDS-PAGE (Biosesang, Gyeonggi-do, South Korea), followed by wet transfer to nitrocellulose membrane (Bio-Rad Laboratories, Inc., Hercules, CA, USA). Anti-CRT, anti-HMGB-1, GAPDH rabbit mAb (Cell Signaling Technology, Danvers, MA, USA), and anti-rabbit IgG peroxidase (Sigma–Aldrich) antibodies were used.

Which “CRT- and HMGB-1-protein content compared to untreated and DL-treated cells” value does the source give for `Nc1nc2[nH]cc(CCc3ccc(C(=O)N[C@@H](CCC(=O)O)C(=O)O)cc3)c2c(=O)[nH]1` [PMX, Pemetrexed] here?
Its value is “higher”.
